According to ChEMBL document CHEMBL1201862, “PubChem BioAssay data set” (2004):
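Tested at 5 concentrations; 48 h exposure; 96-well plates; endpoints linearly interpolated, else capped at highest concentration. Here, GI50 denotes the concentration required for 50% inhibition of growth.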 The source made the active and inactive calls. Cut-off read from the data, not from the text of the source: active = GI50 up to about 1.1 µM and inactive = higher.

Legend:
Experiment in all cases: DTP human tumour cell line panel, 48 h
UACC-257 = system: UACC-257
SNB-19 = system: SNB-19
NCI-H522 = system: NCI-H522
SK-MEL-2 = system: SK-MEL-2
U-251 = system: U-251
NCI-H460 = system: NCI-H460
OVCAR-5 = system: OVCAR-5
MOLT-4 = system: MOLT-4
ACHN = system: ACHN
UACC-62 = system: UACC-62
SN12C = system: SN12C
T47D = system: T47D
HCT-15 = system: HCT-15
NCI-H23 = system: NCI-H23
SW-620 = system: SW-620
EKVX = system: EKVX
Malme-3M = system: Malme-3M
SR = system: SR
A498 = system: A498
HCC 2998 = system: HCC 2998

SMILES	GI50 (UACC-257)	GI50 (SNB-19)	GI50 (NCI-H522)	GI50 (SK-MEL-2)	GI50 (U-251)	GI50 (NCI-H460)	GI50 (OVCAR-5)	GI50 (MOLT-4)	GI50 (ACHN)	GI50 (UACC-62)	GI50 (SN12C)	GI50 (T47D)	GI50 (HCT-15)	GI50 (NCI-H23)	GI50 (SW-620)	GI50 (EKVX)	GI50 (Malme-3M)	GI50 (SR)	GI50 (A498)	GI50 (HCC 2998)
CC12CCC(C/C1=N\NC(N)=O)C2(C)C (centres undefined)	> 100 µM (inactive)	> 100 µM (inactive)	> 100 µM (inactive)	> 100 µM (inactive)	> 100 µM (inactive)	> 100 µM (inactive)	> 100 µM (inactive)	> 100 µM (inactive)	> 100 µM (inactive)	> 100 µM (inactive)	> 100 µM (inactive)	> 100 µM (inactive)	> 100 µM	> 100 µM (inactive)	> 100 µM (inactive)	> 100 µM (inactive)	> 100 µM (inactive)	> 100 µM (inactive)		
COC(=O)[C@H]1COC(=O)N1	> 100 µM (inactive)	> 100 µM (inactive)	> 100 µM (inactive)	> 100 µM (inactive)	> 100 µM (inactive)	> 100 µM (inactive)	> 100 µM (inactive)	> 100 µM (inactive)	> 100 µM (inactive)	> 100 µM (inactive)	> 100 µM (inactive)	> 100 µM (inactive)	> 100 µM	> 100 µM (inactive)	> 100 µM (inactive)	> 100 µM (inactive)	> 100 µM (inactive)		> 100 µM (inactive)	> 100 µM (inactive)
COc1cc2c[n+]3c4c(c2c(OC)c1OC)CCCC4CC3 (centres undefined)	35.6 µM (inactive)	36.6 µM (inactive)	30.8 µM (inactive)	> 100 µM (inactive)	17 µM (inactive)	> 100 µM (inactive)	> 100 µM (inactive)	> 100 µM (inactive)	> 100 µM (inactive)	> 100 µM (inactive)		27.9 µM (inactive)	> 100 µM	34.8 µM (inactive)	> 100 µM (inactive)	> 100 µM (inactive)	15.5 µM (inactive)		> 100 µM (inactive)	98.4 µM (inactive)
CCOC(=O)/C(C(=O)Nc1ccc(F)cc1)=C(/N)N1CCCC1	> 100 µM (inactive)	> 100 µM (inactive)	> 100 µM (inactive)	> 100 µM (inactive)	> 100 µM (inactive)	> 100 µM (inactive)	> 100 µM (inactive)	> 100 µM (inactive)	> 100 µM (inactive)	> 100 µM (inactive)	> 100 µM (inactive)	> 100 µM (inactive)	< 0.01 µM	< 0.01 µM (active)	> 100 µM (inactive)	> 100 µM (inactive)	> 100 µM (inactive)		> 100 µM (inactive)	> 100 µM (inactive)
COc1cc(O)c2c(c1)OCC(Cc1ccc(O)cc1)C2=O (centres undefined)	> 100 µM (inactive)	> 100 µM (inactive)	> 100 µM (inactive)	> 100 µM (inactive)	> 100 µM (inactive)	> 100 µM (inactive)	> 100 µM (inactive)	> 100 µM (inactive)	> 100 µM (inactive)	> 100 µM (inactive)	> 100 µM (inactive)	45.4 µM (inactive)	94.8 µM	> 100 µM (inactive)	> 100 µM (inactive)		> 100 µM (inactive)	55.8 µM (inactive)	36.1 µM (inactive)	
CN(C)CC1CCC/C(=C\c2ccc(N(C)C)cc2)C1=O (centres undefined)	13.5 µM (inactive)	17.7 µM (inactive)	1.75 µM (inactive)	10.2 µM (inactive)	17 µM (inactive)	12 µM (inactive)	13.9 µM (inactive)	4.97 µM (inactive)	19.8 µM (inactive)	15.8 µM (inactive)	16.1 µM (inactive)	2.25 µM (inactive)	4.86 µM	15.1 µM (inactive)	1.85 µM (inactive)	16.7 µM (inactive)	12.1 µM (inactive)		17.1 µM (inactive)	15.9 µM (inactive)
COC(=O)C(Cc1c[nH]c2ccccc12)NP(=O)(O)OCC1OC(n2cc(I)c(=O)[nH]c2=O)CC1O (centres undefined)	> 100 µM (inactive)	> 100 µM (inactive)	> 100 µM (inactive)		> 100 µM (inactive)	> 100 µM (inactive)	> 100 µM (inactive)	> 100 µM (inactive)	> 100 µM (inactive)	> 100 µM (inactive)	> 100 µM (inactive)	> 100 µM (inactive)	> 100 µM	> 100 µM (inactive)	> 100 µM (inactive)	> 100 µM (inactive)	> 100 µM (inactive)	> 100 µM (inactive)	> 100 µM (inactive)	
